Measured values reported in ChEMBL document CHEMBL1131207, “Discovery and evaluation of a series of 3-acylindole imidazopyridine platelet-activating factor antagonists” (J Med Chem, 1998).
In brackets after ≈: the same amount, converted by molar mass.

What was measured:
Rattus norvegicus [1] = assay: The compound was evaluated for its PAF-induced vascular permeability in rat when dosed orally; assay type: functional; details: po
[2] = molecular target: Platelet-activating factor receptor (Homo sapiens, UniProt P25105); assay: The compound was evaluated for its binding affinity against PAF receptor in human platelet
Sequence of Platelet-activating factor receptor (P25105 whole entry): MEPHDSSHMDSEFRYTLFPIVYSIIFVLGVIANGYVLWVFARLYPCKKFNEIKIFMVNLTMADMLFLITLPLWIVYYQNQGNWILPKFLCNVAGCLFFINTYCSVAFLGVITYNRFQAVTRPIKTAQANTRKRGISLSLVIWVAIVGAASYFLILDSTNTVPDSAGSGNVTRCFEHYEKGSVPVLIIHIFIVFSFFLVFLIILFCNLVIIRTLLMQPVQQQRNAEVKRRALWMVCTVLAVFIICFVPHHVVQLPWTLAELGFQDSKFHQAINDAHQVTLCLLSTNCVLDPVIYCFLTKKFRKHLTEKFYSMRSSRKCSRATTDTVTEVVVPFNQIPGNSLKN

Cavia porcellus [3] = assay: The compound was evaluated for its PAF-induced vascular permeability in guinea pig when dosed intravenously; assay type: functional; details: iv
Cavia porcellus [4] = assay: The compound was evaluated for its PAF-induced vascular permeability in guinea pig when dosed orally; assay type: functional; details: po
[5] = The compound was evaluated for its bioavailability in rat; assay type: ADME, organism-based; details: in vivo
Rattus norvegicus [6] = assay: The compound was evaluated for its PAF-induced vascular permeability in rat when dosed intravenously; assay type: functional; details: iv
[7] = The compound was evaluated for its bioavailability in monkey; assay type: ADME, organism-based; details: primates, in vivo
[8] = The bioavailability in monkey was evaluated; assay type: ADME, organism-based; details: primates, in vivo
[9] = The bioavailability in rat was evaluated; assay type: ADME, organism-based; details: in vivo
[10] = molecular target: Platelet-activating factor receptor (Rattus norvegicus) (UniProt P46002); assay: Ability to block the effect of exogenously administered PAF upon intravenous administration in PAF-induced rat skin permeability assay; assay type: functional, organism-based
Sequence of Platelet-activating factor receptor (Rattus norvegicus) (P46002 whole entry): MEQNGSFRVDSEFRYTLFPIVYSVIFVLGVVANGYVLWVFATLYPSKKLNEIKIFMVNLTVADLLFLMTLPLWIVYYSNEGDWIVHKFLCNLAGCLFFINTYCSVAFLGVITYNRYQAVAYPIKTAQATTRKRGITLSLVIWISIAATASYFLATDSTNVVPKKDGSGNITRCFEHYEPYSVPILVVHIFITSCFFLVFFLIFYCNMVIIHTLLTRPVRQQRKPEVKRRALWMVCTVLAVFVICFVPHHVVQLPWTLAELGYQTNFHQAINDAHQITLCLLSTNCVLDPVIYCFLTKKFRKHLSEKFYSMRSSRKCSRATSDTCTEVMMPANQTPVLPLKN

Cavia porcellus [11] = assay: The compound was evaluated for PAF-induced vascular permeability in guinea pig when dosed intravenously; assay type: functional; details: iv
Cavia porcellus [12] = assay: The compound was evaluated for PAF-induced vascular permeability in guinea pig when dosed orally; assay type: functional; details: po
[13] = The solubility in lactate buffer at pH 3 was evaluated; assay type: ADME
[14] = molecular target: Platelet-activating factor receptor (Rattus norvegicus) (UniProt P46002); assay: Tested in vivo for to block the effect of exogenously administered PAF upon oral administration in PAF-induced rat skin permeability assay; assay type: functional, organism-based
[15] = The compound was evaluated for its solubility in lactate buffer at pH 3; assay type: ADME

Structure (SMILES)	ED50 (Rattus norvegicus [1]) [mg/kg]	Ki [2] [pM]	ED50 (Cavia porcellus [3]) [mg/kg]	ED50 (Cavia porcellus [4]) [mg/kg]	bioavailability [5] [%]	ED50 (Rattus norvegicus [6]) [mg/kg]	bioavailability [7] [%]	bioavailability [8] [%]	bioavailability [9] [%]	ED50 [10] [mg/kg]	ED50 (Cavia porcellus [11]) [mg/kg]	ED50 (Cavia porcellus [12]) [mg/kg]	solubility [13] [mg/mL]	ED50 [14] [mg/kg]	solubility [15] [mg/mL]
CC(=O)OC[n+]1cccc([C@H]2SCc3c(C(=O)c4cn(C(=O)N(C)C)c5cc(-c6ccc(F)cc6)ccc45)ccn32)c1.[Cl-]	0.08	980	0.09	0.08	46	0.006	36	–	–	–	–	–	–	–	–
C#Cc1cccc2c1c(C(=O)c1ccc(Cn3c(C)nc4cnccc43)c(F)c1)cn2C(=O)N(C)C	–	570	–	–	–	–	–	56	49	0.003	0.016	0.29	> 20	0.094	–
Cc1nc2cnccc2n1Cc1ccc(C(=O)c2cn(C(=O)N(C)C)c3cc(-c4ccc(F)cc4)ccc23)cc1	0.5	–	–	–	–	–	–	–	–	0.068	–	–	–	–	0.12 (≈ 0.226 mM)
CCOC(=O)[C@H](CC(C)C)N(C)S(=O)(=O)c1ccc(Cn2c(C)nc3cnccc32)cc1 [LEXIPAFANT]	0.8	380	0.027	10.3	–	0.02	–	–	–	–	–	–	–	–	> 20
